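Values below derive from 48-hour exposures of cells grown in 96-well plates, with endpoints linearly interpolated between the two concentrations bracketing the appropriate inhibition level. Here, GI50 denotes the concentration required for 50% inhibition of growth. TGI: concentration producing complete growth inhibition.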
Key:
Assay in all cases: growth of human tumour cells (NCI), 48 h
[1] = test system: CAKI-1 renal
[2] = test system: SK-OV-3 ovarian
[3] = test system: UACC-62 melanoma
[4] = test system: ACHN renal
[5] = test system: HS 578T breast
[6] = test system: SF-295 CNS
[7] = test system: MOLT-4 leukemia
[8] = test system: HCT-15 colon
[9] = test system: SNB-75 CNS
[10] = test system: NCI-H460 lung
[11] = test system: NCI/ADR-RES ovarian
[12] = test system: SW-620 colon
[13] = test system: UACC-257 melanoma
[14] = test system: COLO 205 colon
[15] = test system: HOP-62 NSCLC
[16] = test system: NCI-H522 lung
[17] = test system: SN12C renal
[18] = test system: HCT-116 colon
[19] = test system: SF-268 CNS
[20] = test system: A549 NSCLC
[21] = test system: TK-10 renal
[22] = test system: HL-60(TB) leukemia
[23] = test system: NCI-H226 lung
[24] = test system: M14 melanoma
[25] = test system: EKVX NSCLC
[26] = test system: A498 renal
[27] = test system: K-562 leukemia
[28] = test system: T-47D breast
[29] = test system: MDA-MB-435
[30] = test system: SK-MEL-2 melanoma
[31] = test system: SK-MEL-28 melanoma
[32] = test system: OVCAR-4 ovarian
[33] = test system: SF-539 CNS
[34] = test system: OVCAR-5 ovarian
[35] = test system: DU-145 prostate
[36] = test system: SK-MEL-5 melanoma
[37] = test system: KM12 colon

Cc1ccc(NC(=O)c2ccc(CN3CCN(C)CC3)c(C(F)(F)F)c2)cc1Oc1ccc(-c2[nH]nc3ncnc(N)c23)cc1
GI50 [1]: 9.05 µM | TGI [1]: 29.7 µM | GI50 [2]: 23.5 µM | TGI [2]: 56.5 µM | GI50 [3]: 2020 nM | TGI [3]: 4.81 µM | GI50 [4]: 1730 nM | TGI [4]: 3.18 µM | GI50 [5]: 4.97 µM | TGI [5]: 42.8 µM | GI50 [6]: 8.51 µM | TGI [6]: 44.1 µM | GI50 [7]: 2030 nM | TGI [7]: 7.31 µM | GI50 [8]: 1570 nM | TGI [8]: 3.29 µM | GI50 [9]: 419 nM | TGI [9]: 24 µM | GI50 [10]: 1840 nM | TGI [10]: 3.59 µM | GI50 [11]: 3.08 µM | TGI [11]: 12.9 µM | GI50 [12]: 1970 nM | TGI [12]: 3.69 µM | GI50 [13]: 2510 nM | TGI [13]: 5.8 µM | GI50 [14]: 7.29 µM | TGI [14]: 25.2 µM | GI50 [15]: 2260 nM | TGI [15]: 5.14 µM | GI50 [16]: 3.04 µM | TGI [16]: 9.35 µM | GI50 [17]: 3.68 µM | TGI [17]: 18.7 µM | GI50 [18]: 1890 nM | TGI [18]: 4.35 µM | GI50 [19]: 3.77 µM | TGI [19]: 30.2 µM | GI50 [20]: 2180 nM | TGI [20]: 5.36 µM | GI50 [21]: 32.4 µM | TGI [21]: 63.3 µM | GI50 [22]: 6.42 µM | TGI [22]: 78.5 µM | GI50 [23]: 18 µM | TGI [23]: 72.9 µM | GI50 [24]: 1720 nM | TGI [24]: 4.28 µM | GI50 [25]: 2010 nM | TGI [25]: 4.19 µM | GI50 [26]: 18.4 µM | TGI [26]: 42.9 µM | GI50 [27]: 713 nM | TGI [27]: > 100 µM | GI50 [28]: 2610 nM | TGI [28]: 7.17 µM | GI50 [29]: 1610 nM | TGI [29]: 3.34 µM | GI50 [30]: 23.2 µM | TGI [30]: 81.7 µM | GI50 [31]: 1740 nM | TGI [31]: 3.39 µM | GI50 [32]: 18.7 µM | TGI [32]: 42 µM | GI50 [33]: 1160 nM | TGI [33]: 2500 nM | GI50 [34]: 1970 nM | TGI [34]: 3.66 µM | GI50 [35]: 1830 nM | TGI [35]: 3.47 µM | GI50 [36]: 1670 nM | TGI [36]: 3.09 µM | GI50 [37]: 1600 nM | TGI [37]: 3.67 µM

— PubChem BioAssay (NCI)
